Test results published in PMC12735921, “Evaluation of Antiproliferative Activity and Molecular Modeling Studies of Some Novel Benzimidazolone-Bridged Hybrid Compounds” (Pharmaceuticals, 2025).
“And” between values parts separate entries of the source, which are not always exact repeats. Identical values can stand only once.

What was measured:
Type in all cases: cell-based, human
A549 cells = experiment: MTT cell viability assay, A549; settings: for IC50: MTT, 48 h, mean ± SD, n = 3; for A549 Selectivity Index (SI): SI = IC50 (HEK 293)/IC50 (A549)
Procedure: (§1) Cell viability assay was performed on the human lung cancer (A549) (ATCC CCL-185), human breast cancer (MCF-7) (ATCC-HTB-22), cervical cancer (HeLa) (ATCC-CCL-2), and human embryonic kidney 293 (HEK293) (ATCC-CRL-1573) cell lines, which were purchased from Deutsche Sammlung von Mikroorganismen und Zellkulturen (DSMZ, Braunschweig, Germany). The cells were maintained in Dulbecco’s modified Eagle’s medium (DMEM), supplemented with 10% fetal bovine serum (FBS), 2 mM L-glutamine, 100 U/mL penicillin, and 100 mg/L streptomycin (Biochrom AG, Berlin, Germany) at 37 °C in a humidified atmosphere of 5% CO2.
(§2) The cytotoxic effect was determined by the MTT (3-(4,5-dimethyl-2-thiazolyl)-2,5-diphenyl-2H-tetrazolium bromide) cell viability assay. Cells were seeded at an initial concentration of 1 × 10^5 cells/mL in 96-well microplates. Cells were then treated with different concentrations (0.5, 5, 10, 25, 50, 100 and 200 µM) of the novel synthesized compounds for 48 h. After the incubation period, the formed formazan crystals were dissolved in dimethyl sulfoxide (DMSO), and the optical density (OD) of the compounds was measured at 570 nm using a spectrophotometer (BMG Labtech, Ortenberg, Germany). Cytotoxicity was expressed as an increase in the mean percentage of cytotoxicity relative to the unexposed control ± standard deviation (SD). […] Control values were set at 0% cytotoxicity. IC50 was calculated by fitting the data to a sigmoidal curve using a four-parameter logistic model and was presented as an average of three independent measurements. […] Doxorubicin was used as a positive control. Each sample was tested in triplicate.
(§3) To evaluate the selectivity of the tested compound(s) toward cancer cells over normal cells, the Selectivity Index (SI) was calculated using the following formula:SI = IC50 (normal cells)/IC50 (cancer cells)
(§4) An SI value greater than 2 was considered to indicate selective cytotoxicity, while values below 2 were interpreted as non-selective. Higher SI values reflect greater therapeutic potential due to reduced toxicity toward normal cells.

HeLa cells [1] = experiment: MTT cell viability assay, HeLa; settings: for IC50: MTT, 48 h, mean ± SD, n = 3; for HeLa Selectivity Index (SI): SI = IC50 (HEK 293)/IC50 (HeLa)
Procedure: as §1, §2, §3, §4

HEK 293 cells = experiment: MTT cell viability assay, non-cancerous HEK 293; settings: mean ± SD, n = 3
Procedure: as §1
The cytotoxic effect was determined by the MTT (3-(4,5-dimethyl-2-thiazolyl)-2,5-diphenyl-2H-tetrazolium bromide) cell viability assay. Cells were seeded at an initial concentration of 1 × 10^5 cells/mL in 96-well microplates. Cells were then treated with different concentrations (0.5, 5, 10, 25, 50, 100 and 200 µM) of the novel synthesized compounds for 48 h. After the incubation period, the formed formazan crystals were dissolved in dimethyl sulfoxide (DMSO), and the optical density (OD) of the compounds was measured at 570 nm using a spectrophotometer (BMG Labtech, Ortenberg, Germany). Cytotoxicity was expressed as an increase in the mean percentage of cytotoxicity relative to the unexposed control ± standard deviation (SD). […] Control values were set at 0% cytotoxicity. IC50 was calculated by fitting the data to a sigmoidal curve using a four-parameter logistic model and was presented as an average of three independent measurements. […] Each sample was tested in triplicate.

MCF-7 cells = experiment: MTT cell viability assay, MCF-7; settings: for IC50: MTT, 48 h, mean ± SD, n = 3; for MCF-7 Selectivity Index (SI): SI = IC50 (HEK 293)/IC50 (MCF-7)
Procedure: as §1, §2, §3, §4

HeLa cells [2] = experiment: Total oxidative status (TOS), HeLa; settings: IC50 concentration of compound, 48 h, H2O2 250 µM positive control, mean ± SD, n = 3
Procedure: TOS were evaluated using a commercially available kit (Rel Assay Diagnostics®, Gaziantep, Turkey) according to the manufacturer’s instructions. […] The TOS assay quantifies oxidizing agents based on their ability to convert an iron (II) ion chelator complex to iron (III) ions. The results were calibrated against hydrogen peroxide (H2O2, 250 µM) as a positive control for 48 h and expressed as µmol H2O2 equivalents per liter. The analysis was performed in three independent biological replicates (n = 3).

HeLa cells [3] = experiment: Cell cycle analysis (PI staining, flow cytometry), HeLa; settings: IC50 concentration, 48 h, mean ± SEM, n = 3
Procedure: Cell cycle distribution was assessed by propidium iodide (PI) staining and flow cytometry. HeLa, MCF-7, and A549 cells were seeded in 6-well plates at a density of 1 × 10^5 cells per well and allowed to attach overnight. […] Following exposure, both adherent and floating cells were collected, washed twice with cold phosphate-buffered saline (PBS, pH 7.4), and fixed overnight in 70% cold ethanol at 4 °C. After fixation, the cells were centrifuged and resuspended in 500 µL of PI/RNase staining solution containing 50 µg/mL PI and 100 µg/mL RNase A (Sigma-Aldrich®, St. Louis, MO, USA), followed by incubation in the dark for 30 min at 37 °C. The stained samples were analyzed using a Muse™ Cell Analyzer (Merck, Millipore, Germany) equipped with a 488 nm excitation laser and a 617 nm emission filter. A minimum of 10,000 events per sample were acquired after exclusion of debris and doublets via FSC-A vs. FSC-H gating. The DNA content histograms were generated automatically, and cell populations were expressed as percentages of G0/G1, S, and G2/M phases using the Muse™ Cell Cycle Analysis Software 1.5.0.0. All assays were conducted in triplicate biological repeats (n = 3), and results were reported as mean ± SEM.

HeLa cells [4] = experiment: LDH leakage assay, HeLa; settings: IC50 concentration of compound, 48 h, H2O2 positive control, mean ± SD, n = 3
Procedure: One hundred microliters of culture medium was transferred to a new 96-well plate. One hundred microliters of LDH reaction solution was added to each well, and absorbance was measured at 490 nm using an ELISA plate reader (BMG Labtech, Ortenberg, Germany) after 30 min.

HeLa cells [5] = experiment: Intracellular GSH/GSSG ratio, HeLa; settings: IC50 concentration of compound, 48 h, H2O2 positive control, mean ± SD, n = 3
Procedure: Intracellular reduced (GSH) and oxidized (GSSG) glutathione levels were measured using the GSH/GSSG Ratio Detection Assay Kit (Cayman Chemical, Ann Arbor, MI, USA, Cat. No: 703002) according to the manufacturer’s protocol. […] After treatment, cells were washed with cold PBS and lysed with MES buffer provided in the kit.
To prevent oxidation of GSH to GSSG during processing, samples were deproteinized using the supplied metaphosphoric acid solution and neutralized accordingly. Total glutathione and GSSG levels were measured separately by adding the appropriate buffers and reagents to the wells of a 96-well plate, followed by the addition of DTNB recycling reagent and glutathione reductase. Absorbance was read at 405 nm using a microplate reader (BMG Labtech, Germany). The amount of GSH was calculated by subtracting 2 × GSSG from the total glutathione, and the GSH/GSSG ratio was used to assess intracellular redox status.

| IC50 (A549 cells; Homo sapiens, A549) | IC50 (HeLa cells [1]; Homo sapiens, HeLa) | IC50 (MCF-7 cells; Homo sapiens, MCF7) | Compound | IC50 (A549 cells) | IC50 (HeLa cells [1]) | IC50 (HEK 293 cells; 48 h) | IC50 (MCF-7 cells) | A549 Selectivity Index (SI) (A549 cells) | HeLa Selectivity Index (SI) (HeLa cells [1]) | IC50 (HEK 293 cells; Homo sapiens, HEK293, 48 h) | MCF-7 Selectivity Index (SI) (MCF-7 cells) | TOS (HeLa cells [2]) | cells in G0/G1 phase (HeLa cells [3]) | cells in G2/M phase (HeLa cells [3]) | cells in S phase (HeLa cells [3]) | LDH (HeLa cells [4]) | GSH/GSSG (HeLa cells [5]) |
| --- | --- | --- | --- | --- | --- | --- | --- | --- | --- | --- | --- | --- | --- | --- | --- | --- | --- |
| 52.8 ± 3 µM | 54.3 ± 3.13 µM | 65.1 ± 3.76 µM | COc1cccc2cc(C(=O)NNC(=O)Cn3c(=O)n(CC(=O)NNC(=O)c4cc5cccc(OC)c5oc4=O)c4cc(Cl)c(Cl)cc43)c(=O)oc12 [Compound 12e, N′,N′′′ -(2,2′-(5,6-dichloro-2-oxo-1H-benzo[d]imidazole-1,3(2H)-diyl)bis(acetyl))bis(8-methoxy-2-oxo-2H-chromene-3-carbohydrazide)] | – | – | – | – | 1.14 | 1.1 | 60.2 ± 3.47 µM | 0.92 | – | – | – | – | – | – |
| 23.6 ± 1.3 µM | 29.1 ± 1.26 µM | 26.4 ± 1.52 µM | CCN(CC)c1ccc2cc(C(=O)NNC(=O)Cn3c(=O)n(CC(=O)NNC(=O)c4cc5ccc(N(CC)CC)cc5oc4=O)c4cc(Cl)c(Cl)cc43)c(=O)oc2c1 [Compound 12f] | – | – | – | – | 1.84 | 1.49 | 43.5 ± 2.51 µM | 1.64 | – | – | – | – | – | – |
| 4.3 ± 0.2 µM | 3.4 ± 0.19 µM | 6.4 ± 0.37 µM | COc1cccc2c1C(=O)c1c(O)c3c(c(O)c1C2=O)C[C@@](O)(C(=O)CO)C[C@@H]3O[C@H]1C[C@H](N)[C@H](O)[C@H](C)O1 [Doxorubicin, reference compound] | – | – | – | – | – | – | – | – | – | – | – | – | – | – |

Continued, compound first:

| Compound | IC50 (A549 cells; Homo sapiens, A549) | IC50 (HeLa cells [1]; Homo sapiens, HeLa) | IC50 (MCF-7 cells; Homo sapiens, MCF7) | IC50 (A549 cells) | IC50 (HeLa cells [1]) | IC50 (HEK 293 cells; 48 h) | IC50 (MCF-7 cells) | A549 Selectivity Index (SI) (A549 cells) | HeLa Selectivity Index (SI) (HeLa cells [1]) | IC50 (HEK 293 cells; Homo sapiens, HEK293, 48 h) | MCF-7 Selectivity Index (SI) (MCF-7 cells) | TOS (HeLa cells [2]) | cells in G0/G1 phase (HeLa cells [3]) | cells in G2/M phase (HeLa cells [3]) | cells in S phase (HeLa cells [3]) | LDH (HeLa cells [4]) | GSH/GSSG (HeLa cells [5]) |
| --- | --- | --- | --- | --- | --- | --- | --- | --- | --- | --- | --- | --- | --- | --- | --- | --- | --- |
| 2,2′-(5,6-Dichloro-2-oxo-1H-benzimidazole-1,3(2H)-diyl)bis[N′-(furan-2-ylmethylidene) acetohydrazide] [Compound 4] | – | – | – | 48 ± 2.77 µM | 72 ± 4.16 µM | 55 ± 3.17 µM | 58 ± 3.35 µM | – | – | – | – | – | – | – | – | – | – |
| CCOC(=O)Cn1c(=O)n(CC(=O)OCC)c2cc(Cl)c(Cl)cc21 [Compound 2, Diethyl 2,2′-(5,6-Dichloro-2-oxo-1H-benzimidazole-1,3(2H)-diyl)diacetate] | 60.8 ± 3.51 µM | 68.8 ± 3.9 µM | 63.2 ± 3.65 µM | – | – | – | – | 1.17 | 1.04 | 71.3 ± 4.12 µM | 1.13 | – | – | – | – | – | – |
| NNC(=O)Cn1c(=O)n(CC(=O)NN)c2cc(Cl)c(Cl)cc21 [Compound 3, 2,2′-(5,6-Dichloro-2-oxo-1H-benzimidazole-1,3(2H)-diyl)diacetohydrazide] | 63.5 ± 3.6 µM | 75.4 ± 4.35 µM | 69.8 ± 4.03 µM | – | – | – | – | 1.06 | 0.89 | 67.9 ± 3.9 µM | 0.97 | – | – | – | – | – | – |
| O=C(Cn1c(=O)n(CC(=O)N/N=C/c2cccs2)c2cc(Cl)c(Cl)cc21)N/N=C/c1cccs1 [Compound 5] | 48.3 ± 2.79 µM | 26.1 ± 1.5 µM | 50.2 ± 2.9 µM | – | – | – | – | 1.22 | 2.27 | 59.4 ± 3.43 µM | 1.18 | 6.9 ± 0.5 µmol H2O2 eq/L and 6.9 ± 0.5 ^a,b µmol H2O2 eq/L | 44.5 ± 2.2% | 30.0 ± 1.5% | 25.5 ± 1.6% | 24.8 ± 2.1 µU/mL and 24.8 ± 2.1 ^a,b µU/mL | 11.8 ± 1.3 |
| O=C(Cn1c(=O)n(CC(=O)c2ccccc2)c2cc(Cl)c(Cl)cc21)c1ccccc1 [Compound 8, 5,6-Dichloro-1,3-bis(2-oxo-2-phenylethyl)-1,3-dihydro-2H-benzimidazol-2-one] | 19.1 ± 1.1 µM | 23.9 ± 1.38 µM | 21.7 ± 1.25 µM | – | – | – | – | 0.91 | 0.73 | 17.5 ± 1.01 µM | 0.8 | – | – | – | – | – | – |
| O=C(Cn1c(=O)n(CC(=O)NNC(=O)c2cc3ccccc3oc2=O)c2cc(Cl)c(Cl)cc21)NNC(=O)c1cc2ccccc2oc1=O [Compound 12a, N′,N′′′ -(2,2′-(5,6-dichloro-2-oxo-1H-benzo[d]imidazole-1,3(2H)-diyl)bis(acetyl))bis(2-oxo-2H-chromene-3-carbohydrazide)] | 21.7 ± 1.25 µM | 48.5 ± 2.8 µM | 50.8 ± 2.93 µM | – | – | – | – | 2.05 | 0.91 | 44.6 ± 2.57 µM | 0.87 | – | – | – | – | – | – |
| O=C(Cn1c(=O)n(CC(=O)NNC(=O)c2cc3cc(Cl)ccc3oc2=O)c2cc(Cl)c(Cl)cc21)NNC(=O)c1cc2cc(Cl)ccc2oc1=O [Compound 12b, N′,N′′′ -(2,2′-(5,6-dichloro-2-oxo-1H-benzo[d]imidazole-1,3(2H)-diyl)bis(acetyl))bis(6-chloro-2-oxo-2H-chromene-3-carbohydrazide)] | 35.2 ± 2 µM | 13.6 ± 0.78 µM | 25.8 ± 1.5 µM | – | – | – | – | 1.39 | 3.61 | 49.1 ± 2.83 µM | 1.9 | 8.1 ± 0.6 µmol H2O2 eq/L and 8.1 ± 0.6 ^a,b µmol H2O2 eq/L | 41.0 ± 2.1% | 35.0 ± 1.7% | 24.0 ± 1.4% | 28.5 ± 2.3 µU/mL and 28.5 ± 2.3 ^a,b µU/mL | 10.1 ± 1.1 |
